Experimental data from US20240050408A1, “USE OF MGLUR5 ANTAGONISTS FOR TREATING AMPHETAMINE ADDICTION” (NOVARTIS AG, priority 2020, published 2024).

Experiments:
[1] = tested on: patients with Cocaine Use Disorder (CUD); test: Phase 2 trial: Clinical Global Impression (CGI) improvement; type: in vivo, human; conditions: P<0.001
Protocol: (§1) This study was conducted in patients with CUD and consisted of about a 21-day screening period followed by a 7-day baseline period, a 98-day outpatient treatment period, and an end of study visit evaluation about 14 days after the last study drug administration ([…]. A). Study treatment was taken twice daily (separated by about 12-hour intervals) with food. For patients in the mavoglurant arm [mavoglurant (free form) provided as modified release formulation (e.g. in WO2014/199316)], an uptitration regimen was performed for 14 days (50 mg b.i.d. from Days 1 to 7 and 100 mg b.i.d from Days 8 to 14) and was followed by 200 mg b.i.d for 84 days.
The primary endpoint was the proportion of cocaine use days during the treatment period, assessed by timeline followback [TLFB] cocaine self-report report. The secondary endpoints included a weekly urine analysis for a log-transformed quantitative measure of cocaine metabolite benzoylecgonine (BE), safety assessments (clinical parameters, suicidal ideation, adverse events [AE] and serious adverse events [SAE] at every visit), and pre- and post-dose levels of mavoglurant in the plasma. Exploratory endpoints included Clinical Global Impression (CGI; 2 components: CGI-S [rated illness severity], CGI-I [rated change from baseline]).
Observer Reported Outcome: • 1. […]

[2] = tested on: patients with Cocaine Use Disorder (CUD); test: Phase 2 trial: alcohol consumption by TLFB; type: in vivo, human; conditions: difference vs placebo not statistically significant (P=0.072)
Protocol: as §1
Alcohol consumption was recorded by the subjects using TLFB. The number of drinks was recorded daily. […] The past consumption of alcohol was the proportion of alcohol over the 28 days preceding the screening visit, which was assessed retrospectively using the TLFB. […]
Patient Reported Outcome included: • 1. The TLFB cocaine: is a cocaine assessment method that obtains estimates of daily cocaine intake and has been evaluated with clinical and nonclinical populations. […] The TLFB alcohol: is a drinking assessment method that obtains estimates of daily drinking and has been evaluated with clinical and nonclinical populations. […]

COC(=O)N1CC[C@@H]2[C@H]1CCC[C@@]2(O)C#Cc1cccc(C)c1 [mavoglurant, (-)-(3aR,4S,7aR)-4-Hydroxy-4-m-tolylethynyl-octahydro-indole-1-carboxylic acid methyl ester] was tested, and the “clinical improvement by CGI vs placebo (result in words)” value ([1]; CGI-I improvement from baseline) was “significantly enhanced clinical improvement”, the “CGI 'very much' and 'much' improved, patients” value ([1]; Day 98, placebo 46.6%) was 90.9% and the “alcohol consumption by TLFB” value [2] was “reduced alcohol consumption”.
